Like-named read-outs stand apart in the source and are kept apart here. Values belong to the molecule of their own block, whether it stands above or below them.
How the values were obtained:
[1] = biological target: recombinant α4β2 NNRs expressed in SH-EP1 cells (Homo sapiens, UniProt P17787+P43681); experiment: [3H]-nicotine binding to recombinant α4β2 NNRs in SH-EP1 cell membranes; details: 5 nM [3H]-nicotine, test compound up to 100 μM
[2] = biological target: α7 NNR binding sites in rat hippocampal preparations (Rattus norvegicus, UniProt Q05941); experiment: [3H]-methyllycaconitine competition binding to rat hippocampal membranes; details: 5 nM [3H]-methyllycaconitine, test compound up to 100 μM
rat α7 NNRs = rat α7 NNRs (Rattus norvegicus, UniProt Q05941); experiment: ACh-evoked currents; type: cell-based; details: for pseudo-Hill slope (nH): variable slope sigmoid fit of inhibition of 60 μM ACh-evoked currents
[3] = biological target: presynaptic naturally-expressed α4β2-containing nicotinic receptors (Rattus norvegicus, UniProt P09483+P12390); experiment: Nicotine-evoked [3H]-dopamine release from rat striatal synaptosomes; type: biochemical; details: read-out: DA Release IC50, 10 μM nicotine-evoked [3H]-dopamine release, mean (95% CI)
α7 NNRs = α7 NNRs (Rattus norvegicus, UniProt Q05941); experiment: Epibatidine-evoked [3H]-norepinephrine release from rat hippocampal slices; type: cell-based
[4] = Maximum plasma concentrations achieved in clinical studies; type: in vivo, human; details: calculated from reported ng/mL and molecular weight
[5] = clinical studies, human plasma, cited from earlier work
[6] = biological target: α4β2 nicotinic receptors stably transfected in SH-EP1 cells (Homo sapiens, UniProt P17787+P43681); experiment: 86Rb+ efflux in α4β2/SH-EP1 cells; type: cell-based; details: for extent of inhibition of nicotine-evoked 86Rb+ efflux: 10 μM nicotine; for extent of inhibition of TC-1827-evoked 86Rb+ efflux: 100 μM TC-1827; for effect on basal 86Rb+ efflux: compound alone, no agonist (data not shown)
Sequence of α4β2 nicotinic receptors stably transfected in SH-EP1 cells (P43681 29-627 limits assumed): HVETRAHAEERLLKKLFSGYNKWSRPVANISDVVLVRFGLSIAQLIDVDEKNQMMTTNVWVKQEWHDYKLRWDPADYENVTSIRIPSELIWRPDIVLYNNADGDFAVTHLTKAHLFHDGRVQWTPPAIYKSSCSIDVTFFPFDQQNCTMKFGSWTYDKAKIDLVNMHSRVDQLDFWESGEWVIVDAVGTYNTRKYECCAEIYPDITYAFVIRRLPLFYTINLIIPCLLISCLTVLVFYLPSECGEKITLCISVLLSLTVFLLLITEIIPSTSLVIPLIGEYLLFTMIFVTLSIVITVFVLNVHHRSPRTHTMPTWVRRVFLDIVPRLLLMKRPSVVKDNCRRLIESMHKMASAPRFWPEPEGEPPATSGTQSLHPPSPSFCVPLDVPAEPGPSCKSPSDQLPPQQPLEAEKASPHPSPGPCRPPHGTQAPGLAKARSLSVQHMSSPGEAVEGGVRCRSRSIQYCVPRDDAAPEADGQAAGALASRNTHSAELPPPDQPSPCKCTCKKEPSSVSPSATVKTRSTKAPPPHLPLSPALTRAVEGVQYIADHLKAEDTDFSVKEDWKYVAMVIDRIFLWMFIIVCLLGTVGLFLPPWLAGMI
Sequence of α4β2 nicotinic receptors stably transfected in SH-EP1 cells (P17787 26-502): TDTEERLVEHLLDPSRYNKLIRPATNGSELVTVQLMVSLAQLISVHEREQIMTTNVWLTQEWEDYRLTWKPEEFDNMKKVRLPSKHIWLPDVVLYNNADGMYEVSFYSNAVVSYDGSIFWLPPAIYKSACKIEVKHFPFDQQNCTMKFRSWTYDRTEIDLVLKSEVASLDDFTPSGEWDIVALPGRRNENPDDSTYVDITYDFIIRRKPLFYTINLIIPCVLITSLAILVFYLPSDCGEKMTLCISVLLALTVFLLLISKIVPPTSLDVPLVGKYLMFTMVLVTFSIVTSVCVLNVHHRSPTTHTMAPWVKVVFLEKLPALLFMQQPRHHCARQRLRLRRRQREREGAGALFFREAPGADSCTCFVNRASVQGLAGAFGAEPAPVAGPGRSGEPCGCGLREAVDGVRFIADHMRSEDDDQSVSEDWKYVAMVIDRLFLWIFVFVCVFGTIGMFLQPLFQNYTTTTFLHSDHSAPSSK

Sequence of recombinant α4β2 NNRs expressed in SH-EP1 cells (P43681 29-627 limits assumed): as the sequence (P43681 29-627 limits assumed) above
Sequence of recombinant α4β2 NNRs expressed in SH-EP1 cells (P17787 26-502): as the sequence (P17787 26-502) above
Sequence of rat α7 NNRs (Q05941 23-502): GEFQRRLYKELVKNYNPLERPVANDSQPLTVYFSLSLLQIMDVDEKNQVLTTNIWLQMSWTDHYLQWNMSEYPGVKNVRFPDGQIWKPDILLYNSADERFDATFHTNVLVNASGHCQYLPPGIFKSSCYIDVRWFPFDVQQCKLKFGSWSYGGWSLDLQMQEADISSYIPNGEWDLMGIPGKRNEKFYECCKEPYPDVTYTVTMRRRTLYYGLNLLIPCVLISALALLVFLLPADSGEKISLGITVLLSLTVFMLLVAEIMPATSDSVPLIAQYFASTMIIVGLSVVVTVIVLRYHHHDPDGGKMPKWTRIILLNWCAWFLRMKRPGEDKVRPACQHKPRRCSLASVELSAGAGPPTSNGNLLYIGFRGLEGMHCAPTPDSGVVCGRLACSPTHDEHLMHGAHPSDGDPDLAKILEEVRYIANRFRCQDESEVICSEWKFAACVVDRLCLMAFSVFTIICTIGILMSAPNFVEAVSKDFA
Sequence of presynaptic naturally-expressed α4β2-containing nicotinic receptors (P09483 31-630): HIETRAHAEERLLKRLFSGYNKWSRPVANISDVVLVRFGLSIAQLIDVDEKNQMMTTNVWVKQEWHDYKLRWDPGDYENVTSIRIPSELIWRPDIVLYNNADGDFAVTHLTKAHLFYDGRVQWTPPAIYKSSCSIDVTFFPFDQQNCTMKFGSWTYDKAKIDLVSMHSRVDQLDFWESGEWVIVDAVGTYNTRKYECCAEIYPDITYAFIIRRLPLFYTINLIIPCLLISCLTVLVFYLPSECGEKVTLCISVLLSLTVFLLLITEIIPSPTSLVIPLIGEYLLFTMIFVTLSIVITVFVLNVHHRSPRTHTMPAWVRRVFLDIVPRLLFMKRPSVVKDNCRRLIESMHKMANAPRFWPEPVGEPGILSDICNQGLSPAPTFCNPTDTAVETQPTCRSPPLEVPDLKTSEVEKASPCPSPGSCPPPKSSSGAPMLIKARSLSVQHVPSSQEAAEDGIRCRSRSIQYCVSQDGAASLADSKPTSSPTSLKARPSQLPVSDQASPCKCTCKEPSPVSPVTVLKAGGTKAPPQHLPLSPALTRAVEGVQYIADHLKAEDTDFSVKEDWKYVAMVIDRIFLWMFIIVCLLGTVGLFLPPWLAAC
Sequence of presynaptic naturally-expressed α4β2-containing nicotinic receptors (P12390 25-500): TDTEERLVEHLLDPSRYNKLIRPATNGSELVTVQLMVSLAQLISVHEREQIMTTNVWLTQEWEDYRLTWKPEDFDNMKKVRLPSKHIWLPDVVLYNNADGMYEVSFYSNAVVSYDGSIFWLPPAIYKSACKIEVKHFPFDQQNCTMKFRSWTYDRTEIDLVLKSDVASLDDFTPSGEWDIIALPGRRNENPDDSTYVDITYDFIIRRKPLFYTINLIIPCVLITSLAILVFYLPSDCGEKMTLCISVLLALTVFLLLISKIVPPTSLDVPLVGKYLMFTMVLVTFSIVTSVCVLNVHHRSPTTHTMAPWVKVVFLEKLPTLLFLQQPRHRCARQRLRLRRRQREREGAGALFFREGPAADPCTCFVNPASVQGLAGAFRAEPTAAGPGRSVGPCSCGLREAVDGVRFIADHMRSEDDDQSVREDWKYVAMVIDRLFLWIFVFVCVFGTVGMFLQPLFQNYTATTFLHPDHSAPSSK
Sequence of α7 NNR binding sites in rat hippocampal preparations (Q05941 23-502): as the sequence (Q05941 23-502) above
Sequence of α7 NNRs (Q05941 23-502): as above

Structure (SMILES): CN(C)CCCN1c2ccccc2Sc2ccc(Cl)cc21 [Chlorpromazine, chlorpromazine]
inhibition of [3H]-nicotine binding [1]: None of the compounds tested inhibited binding
inhibition of [3H]-methyllycaconitine binding [2]: None of the compounds tested inhibited binding
IC50 (rat α7 NNRs): 9.1 µM
pseudo-Hill slope (nH) (rat α7 NNRs): −0.84
IC50 [3]: 2800 nM
IC50 (α7 NNRs): 1700 nM
Max. Plasma Levels ([4]; ref Chetty and Miller, 2001): 2.4 µM
Max. Plasma Levels ([4]; ref Chetty et al., 1996): 1.2 µM
Max. Plasma Levels ([5]; ref Chetty and Miller, 2001): 839 ng/mL
Max. Plasma Levels ([5]; ref Chetty et al., 1996): 422 ng/mL
Max. Plasma Levels ([5]; ref Della Corte et al., 1993): 124 ng/mL

Structure (SMILES): CN1CCN(C2=Nc3cc(Cl)ccc3Nc3ccccc32)CC1 [Clozapine, clozapine]
inhibition of [3H]-nicotine binding [1]: None of the compounds tested inhibited binding
extent of inhibition of nicotine-evoked 86Rb+ efflux [6]: completely inhibited
extent of inhibition of TC-1827-evoked 86Rb+ efflux [6]: fully inhibited
effect on basal 86Rb+ efflux [6]: None of these compounds affected the basal
Max. Plasma Levels ([4]; ref Diaz et al., 2005): 1.8 µM
Max. Plasma Levels ([4]; ref Dumortier et al., 1998): 4.0 µM
Max. Plasma Levels ([4]; ref Perry et al., 1991): 3.3 µM
Max. Plasma Levels ([4]; ref Wong et al., 2006): 5.9 µM
Max. Plasma Levels ([5]; ref Diaz et al., 2005): 574 ng/mL
Max. Plasma Levels ([5]; ref Dumortier et al., 1998): 1310 ng/mL
Max. Plasma Levels ([5]; ref Freudenreich et al., 1996): 880 ng/mL
Max. Plasma Levels ([5]; ref Perry et al., 1991): 1088 ng/mL
Max. Plasma Levels ([5]; ref Wong et al., 2006): 1920 ng/mL

Structure (SMILES): O=C(CCCN1CCC(O)(c2ccc(Cl)cc2)CC1)c1ccc(F)cc1 [Haloperidol, haloperidol]
inhibition of [3H]-nicotine binding [1]: None of the compounds tested inhibited binding
extent of inhibition of nicotine-evoked 86Rb+ efflux [6]: completely inhibited
effect on basal 86Rb+ efflux [6]: None of these compounds affected the basal
Max. Plasma Levels ([4]; ref Roh et al., 2001): 0.23 µM
Max. Plasma Levels ([5]; ref Roh et al., 2001): 86 ng/mL

Structure (SMILES): Clc1ccc2c(c1)N=C(N1CCNCC1)c1ccccc1N2 [N-desmethylclozapine]
inhibition of [3H]-nicotine binding [1]: None of the compounds tested inhibited binding
inhibition of [3H]-methyllycaconitine binding [2]: None of the compounds tested inhibited binding
IC50 [6]: 2100 nM
extent of inhibition of nicotine-evoked 86Rb+ efflux [6]: completely inhibited
extent of inhibition of TC-1827-evoked 86Rb+ efflux [6]: fully inhibited
effect on basal 86Rb+ efflux [6]: None of these compounds affected the basal
IC50 (rat α7 NNRs): 3.2 µM
activity at 6 µM (rat α7 NNRs; read-out: maximal ACh net charge response in the presence of inhibitor): 37.5 ± 5%
pseudo-Hill slope (nH) (rat α7 NNRs): −1.3
IC50 [3]: 2100 nM
IC50 (α7 NNRs): 2200 nM
Max. Plasma Levels ([4]; ref Dumortier et al., 1998): 1.9 µM
Max. Plasma Levels ([4]; ref Flanagan et al., 2003): 1.3 µM
Max. Plasma Levels ([4]; ref Wong et al., 2006): 2.3 µM
Max. Plasma Levels ([5]; ref Dumortier et al., 1998): 580 ng/mL
Max. Plasma Levels ([5]; ref Flanagan et al., 2003): 420 ng/mL
Max. Plasma Levels ([5]; ref Wong et al., 2006): 720 ng/mL

Max. Plasma Levels ([4]; ref Aichhorn et al., 2006): 1.3 µM
Max. Plasma Levels ([4]; ref Grimm et al., 2006): 2.7 µM
Max. Plasma Levels ([4]; ref Lin et al., 2004): 0.24 µM
Structure (SMILES): OCCOCCN1CCN(C2=Nc3ccccc3Sc3ccccc32)CC1 [Quetiapine, quetiapine]
Max. Plasma Levels ([5]; ref Aichhorn et al., 2006): 491 ng/mL
Max. Plasma Levels ([5]; ref Grimm et al., 2006): 1042 ng/mL
Max. Plasma Levels ([5]; ref Lin et al., 2004): 91 ng/mL
Max. Plasma Levels ([5]; ref Tauscher-Wisniewski et al., 2002): 1454 ng/mL
